Data published in ChEMBL document CHEMBL5046303, “Discovery of TAK-925 as a Potent, Selective, and Brain-Penetrant Orexin 2 Receptor Agonist” (ACS Med Chem Lett, 2022).
Calls of active or inactive are those of the source. No cut-off for these calls is given here.

Key:
Orexin receptor type 2 = biological target: T1, Orexin receptor type 2 (Homo sapiens, UniProt O43614); test: Agonist activity at human OX2R expressed in CHO-K1 cells by FLIPR calcium flux assay; assay type: functional, cell-based
T1 sequence (O43614 whole entry): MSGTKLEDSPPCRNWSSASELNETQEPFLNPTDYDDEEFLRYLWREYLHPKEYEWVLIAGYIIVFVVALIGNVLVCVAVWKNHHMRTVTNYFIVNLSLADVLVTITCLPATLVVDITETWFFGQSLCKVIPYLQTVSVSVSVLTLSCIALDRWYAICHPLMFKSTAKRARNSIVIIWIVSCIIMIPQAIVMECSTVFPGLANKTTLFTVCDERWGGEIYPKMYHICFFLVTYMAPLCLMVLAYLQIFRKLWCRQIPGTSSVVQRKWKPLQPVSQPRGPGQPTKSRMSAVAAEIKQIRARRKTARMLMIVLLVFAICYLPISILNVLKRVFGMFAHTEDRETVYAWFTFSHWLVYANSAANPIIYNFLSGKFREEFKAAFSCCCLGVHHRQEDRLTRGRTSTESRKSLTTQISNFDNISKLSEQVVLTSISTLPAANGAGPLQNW

Mus musculus = test: Sleep modulation activity in ICR mouse assessed as increase in time spent in wakefulness at 3 mg/kg, sc administered at zeitgeber time 5 measured after 3 hrs post injection; assay type: functional, organism-based

SMILES: CC[C@H](C)[C@H](NC(=O)CNC(=O)[C@H](C)NC(=O)[C@H](C)NC(=O)[C@H](Cc1cnc[nH]1)NC(=O)[C@H](CC(N)=O)NC(=O)CNC(=O)[C@H](C)NC(=O)CNC(=O)[C@H](Cc1cnc[nH]1)NC(=O)[C@H](CC(C)C)NC(=O)[C@H](CC(C)C)NC(=O)[C@H](CCC(=O)O)NC(=O)[C@H](Cc1ccc(O)cc1)NC(=O)[C@H](CC(C)C)NC(=O)[C@H](CCCNC(=N)N)NC(=O)[C@H](CS)NC(=O)[C@H](CO)NC(=O)[C@H](CS)NC(=O)[C@@H](NC(=O)[C@H](CCCCN)NC(=O)[C@H](CCC(N)=O)NC(=O)[C@H](CCCNC(=N)N)NC(=O)[C@H](CS)NC(=O)[C@H](CS)NC(=O)[C@H](CC(=O)O)NC(=O)[C@@H]1CCCN1C(=O)[C@H](CC(C)C)NC(=O)[C@@H]1CCCN1C(=O)[C@@H]1CCC(=O)N1)[C@@H](C)O)C(=O)N[C@@H](CC(C)C)C(=O)N[C@H](C(=O)N[C@@H](CC(C)C)C(=O)O)[C@@H](C)O
- EC50 (Orexin receptor type 2): 180 pM

SMILES: COC(=O)N1CCC[C@H](NS(C)(=O)=O)[C@@H]1CO[C@H]1CC[C@@H](c2ccccc2)CC1
- Activity (Mus musculus): Active
